The structures appear in SMILES notation.

From patent US20220218714A1, “METHOD OF TREATING CANCER” (Epizyme, Inc., priority 2013, published 2022) come the findings set out here.

For experiment [1], the system named is H3K27me3 in HS-SY-II xenograft. Description: PD alterations in HS-SY-II xenograft model (tumor H3K27me3 ELISA, 7 days). Format: in vivo, mice. The conditions noted are these: for Mean 2 (H3K27me3 level in tumor, fold change to vehicle): vehicle mean = 1; for Mean Diff. (vehicle vs. treated, tumor H3K27me3): Dunnett's multiple comparisons test; for Significant? (vehicle vs. treated, tumor H3K27me3): Dunnett's test, alpha 0.05. On the procedure:
HS-SY-II cells were harvested during mid-log phase growth, and resuspended in Hank balanced salt solution with 50% Matrigel (BD Biosciences). Balb/C-nu mice (Charles River Laboratories Japan) received 1×10^7 cells (0.1 mL cell suspension) subcutaneously in the right flank. Mice carrying tumors of approximately 200 mm^3 (31 days after injection) were sorted into treatment groups with similar mean tumor volumes. Compound A or vehicle (0.5% MC+0.1% Tween-80 in water) was administered at the indicated doses on twice a day for 7 days by oral gavage. Each dose was delivered in a volume of 0.2 mL/20 g mouse (10 mL/kg), and adjusted for the last recorded weight of individual animals. Peripheral blood samples were collected at approximately 5 minutes before and 3 hours after the last dose from Compound A-treated mice. After obtaining plasma samples by centrifugation, the analysis for plasma concentrations of Compound A was conducted by the liquid chromatography-tandem mass spectrometry (LC/MS/MS) method. The UPLC system (Acquity, Waters) equipped with a mass spectrometer (Quattro premier, MICROMASS) was used for quantification of Compound A. The concentrations are plotted (n=5) in FIG. 7A. Each bar represents a mean of plasma concentration in each group.
For FIG. 10D, tumors were snap-frozen in liquid nitrogen. Frozen tumor samples were cut into a 20 mg pieces and placed in 500 μL of ice cold nuclear extraction buffer (10 mM Tris-HCl, 10 mM MgCl2, 25 mM KCl, 1% Triton X-100, 8.6% Sucrose, plus lx Halt Protease inhibitor cocktail (1861281, Thermo Scientific)) and homogenized with a handy micro homogenizer. Nuclei were collected by centrifugation at 600 g for 5 minutes at 4° C. and washed once with ice cold PBS. Supernatant was removed and histones extracted for one hour with 100 μL, of 0.4 N cold sulfuric acid. Extracts were clarified by centrifugation at 10,000 g for 10 minutes at 4° C. and transferred to a fresh microcentrifuge tube containing 1 mL of ice cold acetone. Histones were precipitated at -20° C. for overnight, pelleted by centrifugation at 10,000 g for 10 minutes and resuspended in 100 p1 of water. Histones were quantified using the BCA protein assay (23225, Pierce). The diluted histones were coated on Immulon 4HBX plates (3855, Thermo Scientific) overnight and ELISA was performed. Briefly, after blocking with PBS containing 0.05% Tween 20 and 2% bovine serum albumin (BSA), the plates were incubated with H3K27me3 antibody (#9733, Cell Signaling Technology) or total histone H3 antibody (AB1791, Abcam). The plates were further incubated with horseradish peroxidase conjugated anti-rabbit IgG (#7074, Cell Signaling Technology), followed by incubated with TMB substrate (TMBS-0100-01, BioFx Laboratories). Subsequently, the developed colors in the wells were measured using a plate spectrophotometer (SpectraMax 250, Molecular Devices) at 450 nm (reference wavelength 650 nm). The H3K27me3 levels were adjusted to total histone H3, and expressed as fold changes to vehicle control. The values are plotted (n=6) in FIG. 10D. Each bar represents a mean of the values in each group. […] Histones were extracted and quantified, and the levels of H3K27me3 were analyzed as described above. Trimethylation levels of H3K27 in the tumor are plotted (n=5) in FIG. 7B. Each bar represents a mean ±SEM of the trimethylation level in each group.

Another experiment deals with HS-SY-II cells. Briefly: Gene expression changes in vitro (RT-PCR, normalized to GAPDH). It is filed as cell-based, human. The settings on record: HS-SY-II in vitro culture. On the procedure: ATF3, EGR1, CDKN2A and GAPDH expression were analyzed by using the TaqMan Gene Expression Assays (Life technologies, 4331182) and the TaqMan Probes (Hs00231069_ml, Hs00152928_ml, Hs00233365_ml, and Hs99999905_ml, respectively).

The test system of another experiment is HS-SY-II xenograft. Briefly: Gene expression changes in vivo in HS-SY-II xenograft model (RT-PCR). The settings on record: 500 mg/kg oral twice daily for 7 days; 3 hours after last dose. Further details: species or system mice. How it is done: (§1) Tumor samples were collected at approximately 3 hours after the last dose from mice used in analysis for PK values and PD alterations. The tumor samples were stored using RNAlater (AM7020, Life technologies). Total RNA isolation and the reverse transcription were performed by RNeasy Mini Kit (74104, Qiagen) and High capacity cDNA Reverse Transcription kit (4368814, Life technologies) according to the manufacturer's instruction. The cDNA samples were used for real time-PCR as described above.
as §1, with “above. […] Additionally or alternatively, total RNAs were isolated from frozen tumor samples. The TruSeq' RNA Sample Prep Kit (Illumina) was used to build cDNA library for paired-end sequencing on the Illumina HiSeq (details described in Illumina TruSeq RNA Sample Preparation Guide). […] Paired-end reads from ˜50M clusters per sample were generated using TruSeq SBS kit on the Illumina HiSeq.” for “above.”

In another experiment the test system is SW982 cells. The settings on record: SW982 in vitro culture.
Where [2] appears, read: tumor H3K27me3 across dose groups (FIG. 7B).

As for `CCN(c1cc(-c2ccc(CN3CCOCC3)cc2)cc(C(=O)NCc2c(C)cc(C)[nH]c2=O)c1C)C1CCOCC1` [Compound A], the “Mean 2 (H3K27me3 level in tumor, fold change to vehicle)” value amounted to 0.7 in experiment [1] (125 mg/kg oral twice daily 7 days), 0.55 in experiment [1] (250 mg/kg oral twice daily 7 days) and 0.304 in experiment [1] (500 mg/kg oral twice daily 7 days). The “Mean Diff. (vehicle vs. treated, tumor H3K27me3)” value is given as 0.3 in experiment [1] (125 mg/kg); 0.45 in experiment [1] (250 mg/kg); 0.696 in experiment [1] (500 mg/kg, listed as E7435); 0.896 in experiment [1] (500 mg/kg, listed as E7438). For the same compound, the “Significant? (vehicle vs. treated, tumor H3K27me3)” value in experiment [1] (125 mg/kg), in experiment [1] (250 mg/kg) and in experiment [1] (500 mg/kg) was “Yes” throughout. The “H3K27me3 levels in tumor tissues” value in experiment [1] (oral twice daily for 7 days) was “dose dependent decrease”. For the same compound, the “Is linear trend significant (P <0.05)?” value in experiment [1] (setting [2]) is listed as “Yes”. Further, the “Post test for linear trend: R squared” value in experiment [1] (setting [2]) is listed as 0.9104. Besides, the “Post test for linear trend: Slope” value in experiment [1] (setting [2]) is on record as −0.1119. For the same compound, the “ATF3 and EGR1 expression” value is reported as “upregulated” in the experiment on HS-SY-II cells and “not in SW982” in the experiment on SW982 cells. Further, the CDKN2A expression entry in the experiment with HS-SY-II cells was “Dose- and time-dependent CDKN2A upregulation”. Also, the “CDKN2A expression in tumor” value in the experiment with HS-SY-II xenograft was “significantly upregulated”.
